According to patent publication US20180008587A1, “THIOHYDANTOIN ANDROGEN RECEPTOR ANTAGONISTS FOR THE TREATMENT OF CANCER” (Jaressen Pharmaceutica NV, priority 2016, published 2018):

How the values were obtained:
LNCaP SRα F876L tumors = assay: Castrate resistant prostate cancer xenograft study; type: in vivo, mouse; settings: castrate SHO mice
Experimental: Castrate six to seven week old male SCID Hairless Outbred mice (SHO, Charles Rivers Laboratories) were used as the host strain for xenograft studies. LNCaP SRα F876L tumors were established in host mice and the anti-tumor activity of compounds defined herein was determined. Dosing was initiated when tumors reached 100 to 200 mm^3 and animals were randomized to each of test groups (vehicle (HP-β-CD), 10 mg/kg, 30 mg/kg or 50 mg/kg compound). Compound was dosed orally, QD, for 28 days and tumor size was measured twice weekly along with body weight measurement. At the end of study, the TGI was calculated using initial tumor volume and final tumor volume measurements. TGI: 100−(Treated/Control*100). At the termination of study tumors were collected and stored for further analyses.

[1] = system: androgen dependent signaling; assay: Hershberger assay; type: in vivo, rat; settings: castrated rats, mean ± SD (n=6)
Experimental: The effect of AR antagonists on androgen dependent signaling in vivo was assessed using the Hershberger assay. In this assay, peripubertal castrated male Sprague-Dawley rats were administered AR antagonists described herein in the presence of testosterone (0.4 mg/kg testosterone propionate) and the weights of androgen dependent organs measured. Dosing was continued for 10 days and measurements taken 24 h after the last dose. The extent of antagonism of AR and consequent inhibition of organ growth was evaluated by comparison to the castration control. Compounds of Formula (I) were dosed orally QD and an endpoint assessment made by change in weight of 5 androgen sensitive organs (ASO): Paired Cowper's Glands (CG), Seminal Vesicles with Fluids and Coagulating Glands (SVCG), Glans Penis (GP), Ventral Prostate (VP) and Levator Ani-Bulbocavernosus Complex (LABC)). According to assay guidelines, statistically significant suppression of ASO is required in 2 of 5 organs for a compound to be classified as an anti-androgen (analysis was performed by t-test/Mann-Whitney).
Compounds defined herein were administered at the indicated dose (mg/kg) and flutamide (FT), positive control, at 3 mg/kg. All compounds were co-administered with testosterone propionate (TP, 0.4 mg/kg) which was also administered alone, untreated control, (castrated only rats served as the control for complete androgen blockade). A statistically significant change in ASO achieved in at least 2 of 5 organs was indicative of an active compound.

AR-VP16 = biological target: T1, AR-VP16 (Homo sapiens, UniProt P10275); assay: AR-VP16 DNA binding assay, HepG2; type: cell-based; settings: HepG2, antagonist mode, 90 pM R1881, 48 hours; read-out: IC50 VP16 WT
T1 sequence (P10275 560-920 limits assumed): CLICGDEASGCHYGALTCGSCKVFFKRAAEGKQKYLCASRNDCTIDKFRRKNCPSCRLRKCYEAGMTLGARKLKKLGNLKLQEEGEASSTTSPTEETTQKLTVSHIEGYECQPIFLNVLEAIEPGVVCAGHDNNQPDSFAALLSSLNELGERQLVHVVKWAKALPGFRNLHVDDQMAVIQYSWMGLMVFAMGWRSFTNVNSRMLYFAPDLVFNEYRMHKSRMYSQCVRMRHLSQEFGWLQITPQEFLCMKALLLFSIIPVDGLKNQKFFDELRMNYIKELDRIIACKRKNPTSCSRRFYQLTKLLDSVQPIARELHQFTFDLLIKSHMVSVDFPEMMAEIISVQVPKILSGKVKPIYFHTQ
Experimental: HepG2 cells were maintained in EMEM supplemented with 10% FBS. One day before transfection, the media was changed to EMEM with 10% CSS. […] Cells were then trypsinized, counted and resuspended at 500,000 cells/mL. For agonist mode, the compounds were serially diluted and 50 μL of the compound was added per well. 50 μL of the cells were added to each well and incubated for 48 hours. For antagonist mode, a final concentration of 90 pM (VP16 AR) or 1 nM (VP16 F876L) R1881 was added to the plate and incubated for 48 hours. The plates were then assayed using SteadyGlo and read on the Envision. Percent Stimulation and Inhibition were determined and analyzed using GraphPad Prism.

[2] = 3 mg/kg orally QD 10 days with testosterone propionate 0.4 mg/kg
[3] = 10 mg/kg orally QD 10 days with testosterone propionate 0.4 mg/kg
[4] = 30 mg/kg orally QD 10 days with testosterone propionate 0.4 mg/kg

| SMILES | TGI (%) (LNCaP SRα F876L tumors; 10 mg/kg orally QD 28 days) | TGI (%) (LNCaP SRα F876L tumors; 30 mg/kg orally QD 28 days) | ASO Organ Growth (% of TP control) SVCG [1, 2] | ASO Organ Growth (% of TP control) VP [1, 2] | ASO Organ Growth (% of TP control) SVCG [1, 3] | ASO Organ Growth (% of TP control) VP [1, 3] | ASO Organ Growth (% of TP control) SVCG [1, 4] | ASO Organ Growth (% of TP control) VP [1, 4] | IC50 (AR-VP16) [nM] |
| --- | --- | --- | --- | --- | --- | --- | --- | --- | --- |
| CN1CCC(Oc2ccc(N3C(=S)N(c4cnc(C#N)c(C(F)(F)F)c4)C(=O)C34CCC4)cc2)CC1 [Cpd 85, 5-[8-[4-[(1-methyl-4-piperidyl)oxy]phenyl]-5-oxo-7-thioxo-6,8-diazaspiro[3.4]octan-6-yl]-3-(trifluoromethyl)pyridine-2-carbonitrile] | 80.2 | 100.8 | 67.3 ± 20.2 % of TP control | 72.3 ± 18.5 % of TP control | 31.6 ± 37.7 % of TP control | 37.4 ± 25.6 % of TP control | 8.5 ± 14.7 % of TP control | 13.2 ± 19.2 % of TP control |  |
| N#Cc1ncc(N2C(=O)C3(CCC3)N(c3ccc(C(=O)NCCCO)c(F)c3)C2=S)cc1C(F)(F)F [Cpd 40, 4-[6-[6-cyano-5-(trifluoromethyl)-3-pyridyl]-5-oxo-7-thioxo-6,8-diazaspiro[3.4]octan-8-yl]-2-fluoro-N-(3-hydroxypropyl)benzamide] |  |  |  |  |  |  |  |  | 24 |
| N#Cc1ncc(N2C(=O)C3(CCC3)N(c3ccc(OC4CCNCC4)cc3)C2=S)cc1C(F)(F)F [Cpd 35, 5-[5-oxo-8-[4-(4-piperidyloxy)phenyl]-7-thioxo-6,8-diazaspiro[3.4]octan-6-yl]-3-(trifluoromethyl)pyridine-2-carbonitrile] |  | 53 |  |  |  |  | 28.1 ± 19.5 % of TP control | 25.7 ± 22.9 % of TP control | 3390 |
